Source: article PMC7725003, “Systematically Studying the Optimal Amino Acid Distribution Patterns of the Amphiphilic Structure by Using the Ultrashort Amphiphiles” (Frontiers in Microbiology, 2020)
Where no end group is shown, it is not given here.

Columns and labels:
E. coli K99 = details: for MIC: MHB, 24 h 37°C, 95% growth inhibition; for MBC: value in brackets, >99.9% of cells killed
Description: (§1) The antimicrobial activities of the peptides were measured using a method adapted from the National Committee for Clinical Laboratory Standards (NCCLS) with some modifications ([Chou et al., 2016]). The specific procedure for these assays has been previously described. In brief, the bacterial cells were grown to a mid-logarithmic phase and diluted in MHB to an ultimate concentration of 0.5–1 × 10^6 CFU mL^–1. Subsequently, the peptides were consecutively diluted in a 0.2% BSA solution and then added to a bacterial solution in a 96-well plate at identical volumes. After incubation for 24 h at 37°C, the MICs were determined to be the lowest peptide concentration that inhibited 95% of the bacterial growth by monitoring the absorbance at 492 nm using a microplate reader. Subsequently, 50 μL of each incubation mixture was further transferred to agar plates and incubated overnight. […] Every assay was reproduced more than 3 times.

E. coli K88 = details: for MIC: MHB, 24 h 37°C, 95% growth inhibition; for MBC: value in brackets, >99.9% of cells killed
Description: as §1

E. coli ATCC 25922 = assay: Salt sensitivity assay (MIC); format: cell-based, Escherichia coli; details: for MIC, FeCl3: 4 μM FeCl3; for MIC, NH4Cl: 6 μM NH4Cl; for MIC, ZnCl2: 8 μM ZnCl2; for MIC, MgCl2: 1 mM MgCl2; for MIC, CaCl2: 2 mM CaCl2; for MIC, KCl: 4.5 mM KCl; for MIC, NaCl: 150 mM NaCl; for MIC, Control: no added salt, three independent assays
Procedure, shortened: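 Peptides diluted serially in 0.2% BSA solution were combined at identical volumes with mid-logarithmic E. coli ATCC 25922 in MHB (0.5–1 × 10^6 CFU mL^–1) in 96-well plates, with or without a physiological salt. Plates were incubated for 24 h at 37°C. MIC was the lowest concentration inhibiting 95% of growth, measured as absorbance at 492 nm on a microplate reader.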

B. subtilis 63501 = format: cell-based, Bacillus subtilis; details: 63501, 24 h
Procedure, shortened: (§2)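 MIC = lowest peptide concentration giving 95% growth inhibition (A492) after 24 h at 37°C in MHB, inoculum 0.5–1 × 10^6 CFU mL^–1. Peptides serially diluted in 0.2% BSA. MBC = lowest concentration killing >99.9% of cells on overnight agar plating.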

P. aeruginosa 27853 = format: cell-based, Pseudomonas aeruginosa; details: 27853, 24 h
Procedure, shortened: as §2

S. typhimurium 14028 = format: cell-based, Salmonella typhimurium; details: 14028, 24 h
Procedure, shortened: as §2

S. typhimurium 7731 = format: cell-based, Salmonella typhimurium; details: 7731, 24 h
Procedure, shortened: as §2

MRSA 43300 = format: cell-based, methicillin-resistant S. aureus; details: 43300, 24 h
Procedure, shortened: as §2

S. aureus 29213 [1] = assay: Salt sensitivity assay (MIC); format: cell-based, Staphylococcus aureus; details: for MIC, FeCl3: 4 μM FeCl3; for MIC, NH4Cl: 6 μM NH4Cl; for MIC, ZnCl2: 8 μM ZnCl2; for MIC, MgCl2: 1 mM MgCl2; for MIC, CaCl2: 2 mM CaCl2; for MIC, KCl: 4.5 mM KCl; for MIC, NaCl: 150 mM NaCl; for MIC, Control: no added salt, three independent assays
Procedure, shortened: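 Physiological salts (150 mM NaCl, 4.5 mM KCl, 6 μM NH4Cl, 8 μM ZnCl2, 1 mM MgCl2, 2mM CaCl2, 4 μM FeCl3) added to MHB. Bacteria at 0.5–1 × 10^6 CFU/mL exposed to serially diluted peptides for 24 h at 37°C. MIC read as lowest peptide concentration giving 95% growth inhibition by absorbance at 492 nm.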

E. faecalis 29212 = format: cell-based, Enterococcus faecalis; details: 29212, 24 h
Procedure, shortened: as §2

S. aureus 29213 [2] = format: cell-based, Staphylococcus aureus; details: 29213, 24 h
Procedure, shortened: as §2

S. aureus 25923 = format: cell-based, Staphylococcus aureus; details: 25923, 24 h
Procedure, shortened: as §2

Gram-positive bacteria [3] = details: geometric mean of MBCs, 7 Gram-positive strains (Table 2)
[4] = system: Listeria monocytogenes CGMCC 1.1075; format: cell-based; details: CGMCC 1.1075, 24 h
Procedure, shortened: as §2

Gram-negative bacteria [5] = details: geometric mean of MBCs, 9 Gram-negative strains (Table 2)
Gram-positive bacteria [6] = details: for GM MIC: geometric mean of MICs, 7 Gram-positive strains (Table 2); for TI, Gram-positive bacteria: therapeutic index TI = MHC/GM MIC
Procedure, shortened: (§3)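 MIC is the lowest peptide concentration giving 95% growth inhibition, read at 492 nm after 24 h incubation at 37°C. Peptides were serially diluted in 0.2% BSA and added to mid-logarithmic cells at 0.5–1 × 10^6 CFU mL^–1 in MHB, following a modified NCCLS method, with more than 3 repeats.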

Gram-negative bacteria [7] = details: for GM MIC: geometric mean of MICs, 9 Gram-negative strains (Table 2); for TI, Gram-negative bacteria: therapeutic index TI = MHC/GM MIC
Procedure, shortened: as §3

S. pullorum 7913 = format: cell-based, Salmonella pullorum; details: 7913, 24 h
Procedure, shortened: as §2

[8] = system: all of the tested bacterial strains; assay: Geometric mean of MICs, all tested bacterial strains; format: cell-based; details: for GM, All: geometric mean of MICs across all tested strains; for TI, All: therapeutic index TI = MHC/GM MIC
Procedure, shortened: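 Per strain, MIC came from absorbance at 492 nm after 24 h at 37°C (≥95% inhibition), using mid-log inoculum of 0.5–1 × 10^6 CFU mL^–1 in MHB and peptide diluted in 0.2% BSA. MBC (>99.9% killed) came from overnight agar plating, and values are geometric means across strains.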

S. epidermidis 12228 = format: cell-based, Staphylococcus epidermidis; details: 12228, 24 h
Procedure, shortened: as §2

E. coli 25922 = format: cell-based, Escherichia coli; details: 25922, 24 h
Procedure, shortened: as §2

E. coli UB1005 = format: cell-based, Escherichia coli; details: UB1005, 24 h
Procedure, shortened: as §2

E. coli O78 = format: cell-based, Escherichia coli; details: O78, 24 h
Procedure, shortened: as §2

Substance: RLRLRRLLL-NH2 [L9]
- MIC (E. coli K99): 16 µM
- MBC (E. coli K99): 32 µM
- MIC (E. coli K88): 16 µM
- MBC (E. coli K88): 32 µM
- MIC, FeCl3 (E. coli ATCC 25922): 16 µM
- MIC, NH4Cl (E. coli ATCC 25922): 32 µM
- MIC, ZnCl2 (E. coli ATCC 25922): 16 µM
- MIC, MgCl2 (E. coli ATCC 25922): 32 µM
- MIC, CaCl2 (E. coli ATCC 25922): > 64 µM
- MIC, KCl (E. coli ATCC 25922): 16 µM
- MIC, NaCl (E. coli ATCC 25922): > 64 µM
- MIC, Control (E. coli ATCC 25922): 16 µM
- MBC (B. subtilis 63501): 16 µM
- MIC (B. subtilis 63501): 8 µM
- MIC (P. aeruginosa 27853): > 64 µM
- MBC (S. typhimurium 14028): 128 µM
- MIC (S. typhimurium 14028): 64 µM
- MBC (S. typhimurium 7731): 128 µM
- MIC (S. typhimurium 7731): 64 µM
- MIC (MRSA 43300): >64 µM
- MIC, FeCl3 (S. aureus 29213 [1]): > 64 µM
- MIC, NH4Cl (S. aureus 29213 [1]): > 64 µM
- MIC, ZnCl2 (S. aureus 29213 [1]): > 64 µM
- MIC, MgCl2 (S. aureus 29213 [1]): > 64 µM
- MIC, CaCl2 (S. aureus 29213 [1]): > 64 µM
- MIC, KCl (S. aureus 29213 [1]): > 64 µM
- MIC, NaCl (S. aureus 29213 [1]): > 64 µM
- MIC, Control (S. aureus 29213 [1]): > 64 µM
- MIC (E. faecalis 29212): > 64 µM
- MIC (S. aureus 29213 [2]): >64 µM
- MIC (S. aureus 25923): > 64 µM
- GM MBC (Gram-positive bacteria [3]): 78.02 µM
- MBC [4]: 32 µM
- MIC [4]: 16 µM
- GM MBC (Gram-negative bacteria [5]): 69.12 µM
- GM MIC (Gram-positive bacteria [6]): 64.00 µM
- TI, Gram-positive bacteria (Gram-positive bacteria [6]): 4.00
- GM MIC (Gram-negative bacteria [7]): 37.33 µM
- TI, Gram-negative bacteria (Gram-negative bacteria [7]): 6.86
- MBC (S. pullorum 7913): 64 µM
- MIC (S. pullorum 7913): 32 µM
- GM, All [8]: 47.26 µM
- TI, All [8]: 5.42
- MIC (S. epidermidis 12228): > 64 µM
- MBC (E. coli 25922): 32 µM
- MIC (E. coli 25922): 16 µM
- MBC (E. coli UB1005): 128 µM
- MIC (E. coli UB1005): 64 µM
- MBC (E. coli O78): 64 µM
- MIC (E. coli O78): 32 µM

Substance: LRRLRLRLL-NH2 [L3]
- MIC (E. coli K99): 16 µM
- MBC (E. coli K99): 32 µM
- MIC (E. coli K88): 8 µM
- MBC (E. coli K88): 16 µM
- MIC, FeCl3 (E. coli ATCC 25922): 16 µM
- MIC, NH4Cl (E. coli ATCC 25922): 16 µM
- MIC, ZnCl2 (E. coli ATCC 25922): 16 µM
- MIC, MgCl2 (E. coli ATCC 25922): 32 µM
- MIC, CaCl2 (E. coli ATCC 25922): 32 µM
- MIC, KCl (E. coli ATCC 25922): 8 µM
- MIC, NaCl (E. coli ATCC 25922): 32 µM
- MIC, Control (E. coli ATCC 25922): 8 µM
- MBC (B. subtilis 63501): 16 µM
- MIC (B. subtilis 63501): 8 µM
- MBC (P. aeruginosa 27853): 128 µM
- MIC (P. aeruginosa 27853): 64 µM
- MBC (S. typhimurium 14028): 128 µM
- MIC (S. typhimurium 14028): 64 µM
- MBC (S. typhimurium 7731): 64 µM
- MIC (S. typhimurium 7731): 32 µM
- MIC (MRSA 43300): >64 µM
- MIC, FeCl3 (S. aureus 29213 [1]): > 64 µM
- MIC, NH4Cl (S. aureus 29213 [1]): > 64 µM
- MIC, ZnCl2 (S. aureus 29213 [1]): > 64 µM
- MIC, MgCl2 (S. aureus 29213 [1]): > 64 µM
- MIC, CaCl2 (S. aureus 29213 [1]): > 64 µM
- MIC, KCl (S. aureus 29213 [1]): > 64 µM
- MIC, NaCl (S. aureus 29213 [1]): > 64 µM
- MIC, Control (S. aureus 29213 [1]): > 64 µM
- MIC (E. faecalis 29212): > 64 µM
- MIC (S. aureus 29213 [2]): >64 µM
- MIC (S. aureus 25923): > 64 µM
- GM MBC (Gram-positive bacteria [3]): 78.02 µM
- MBC [4]: 32 µM
- MIC [4]: 16 µM
- GM MBC (Gram-negative bacteria [5]): 37.33 µM
- GM MIC (Gram-positive bacteria [6]): 64.00 µM
- TI, Gram-positive bacteria (Gram-positive bacteria [6]): 4.00
- GM MIC (Gram-negative bacteria [7]): 18.66 µM
- TI, Gram-negative bacteria (Gram-negative bacteria [7]): 13.72
- MBC (S. pullorum 7913): 16 µM
- MIC (S. pullorum 7913): 8 µM
- GM, All [8]: 32.00 µM
- TI, All [8]: 8.00
- MIC (S. epidermidis 12228): > 64 µM
- MBC (E. coli 25922): 16 µM
- MIC (E. coli 25922): 8 µM
- MBC (E. coli UB1005): 32 µM
- MIC (E. coli UB1005): 16 µM
- MBC (E. coli O78): 32 µM
- MIC (E. coli O78): 16 µM
